Legend:
[1] = cited from earlier work
microorganisms = settings: cited from earlier work
[2] = oral vs intramuscular; cited from earlier work
[3] = cited from earlier work; remark: listed apart in the source
[4] = ECG/EKG comparison of QTc intervals in patients on and off treatment
Excerpt: Applicants' also performed a comparison study involving hundreds of EKG's performed on patients treated with IV methadone versus the EKG's of patients not being treated with the IV methadone.

[5] = in vivo; cited from earlier work
[6] = system: gram-positive and gram-negative bacteria; settings: cited from earlier work
molds and yeasts = settings: relative to activity against bacteria; cited from earlier work

CCCCOC(=O)c1ccc(O)cc1 [Butylparaben]
water solubility [1]: about 0.2% | pH range (optimal pH range for activity) (microorganisms): 3.0-9.5

CCC(=O)C(CC(C)N(C)C)(c1ccccc1)c1ccccc1 (stereo not drawn) [methadone]
total analgesic effects, oral relative to same dose intramuscularly [2]: about 50% | time to appreciable concentrations in plasma ([3]; after subcutaneous injection): ≤ 10 min | time to detection in blood plasma after ingestion ([3]; oral): ≤ 30 min | QTc prolongation after switch from IV route to oral route ([4]; at least one patient): reversed | prolongation in QTc interval times ([4]; orally ingested methadone in a formulation without chlorobutanol): did not show a similar prolongation

CC(C)(O)C(Cl)(Cl)Cl [chlorobutanol]
half-life [5]: over 10 days

Benzalkonium chloride
activity against growth of gram-positive and gram-negative bacteria [6]: strongly active | activity against growth of molds and yeasts (molds and yeasts): slightly weaker | pH range (optimal pH range for activity) (microorganisms): 4-10

O=C(O)c1ccccc1 [Benzoic acid]
activity against growth of gram-positive and gram-negative bacteria [6]: strongly active | activity against growth of molds and yeasts (molds and yeasts): slightly weaker | pH range (optimal pH range for activity) (microorganisms): 2-5

Cetrimide
activity against growth of gram-positive and gram-negative bacteria [6]: strongly active | activity against growth of molds and yeasts (molds and yeasts): slightly weaker | pH range (optimal pH range for activity) (microorganisms): 4-10

C/C=C/C=C/C(=O)O [Sorbic acid]
activity against growth of gram-positive and gram-negative bacteria [6]: strongly active | activity against growth of molds and yeasts (molds and yeasts): slightly weaker | pH range (optimal pH range for activity) (microorganisms): <6.5

CCCOC(=O)c1ccc(O)cc1 [Propylparaben]
pH range (optimal pH range for activity) (microorganisms): 3.0-9.5

COC(=O)c1ccc(O)cc1 [Methylparaben]
activity against growth of gram-positive and gram-negative bacteria [6]: strongly active | activity against growth of molds and yeasts (molds and yeasts): slightly weaker | pH range (optimal pH range for activity) (microorganisms): 3.0-9.5

From patent US20040180915A1, “Methadone-containing compositions for parenteral administration and method of use thereof” (priority 2003, published 2004)
